Assay results taken from patent publication US5798350A, “Dopamine receptor ligands” (Allelix Biopharmaceuticals, Inc., priority 1996, dated 1998).

These compounds were tested against T1, human D4 receptors (Homo sapiens, UniProt P21917) (assay: Functional antagonist assay: reversal of dopamine inhibition of forskolin-stimulated adenyl cyclase (cAMP)). Settings: 1 μM; dopamine and forskolin both 10 μM; read-out: % REVERSAL OF DOPAMINE EFFECT.
T1 construct: expressed in transfected cells
T1 sequence (P21917 1-419): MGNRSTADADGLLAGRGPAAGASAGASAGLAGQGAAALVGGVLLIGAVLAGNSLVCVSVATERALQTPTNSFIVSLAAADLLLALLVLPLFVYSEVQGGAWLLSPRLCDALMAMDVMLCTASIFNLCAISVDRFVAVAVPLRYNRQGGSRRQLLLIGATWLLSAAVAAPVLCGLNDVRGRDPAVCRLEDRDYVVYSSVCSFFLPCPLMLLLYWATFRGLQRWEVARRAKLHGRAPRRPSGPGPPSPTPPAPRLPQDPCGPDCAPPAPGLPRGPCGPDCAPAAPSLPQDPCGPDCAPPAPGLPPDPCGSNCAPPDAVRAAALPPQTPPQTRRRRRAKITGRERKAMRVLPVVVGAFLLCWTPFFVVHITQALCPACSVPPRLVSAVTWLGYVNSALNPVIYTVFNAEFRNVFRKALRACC
Type: cell-based
Experimental: The D4 receptor responds to dopamine and other agonists by reducing adenyl cyclase mediated production of cyclic AMP. Particular test compounds were assayed for their ability to reverse dopamine inhibition of adenyl cyclase by the following procedure. Forskolin was used to elevate the basal adenyl cyclase activity.
CHO Pro 5 cells stably expressing human D4 receptors were plated in 6 well plates in DMEM (Dulbecco's Modified Eagle Medium)/F12(Nutrient Mixture F12 (Ham)) media with 10% FCS (fetal calf serum) and G418 (Geneticen Disulfate), and incubated at 37° C. in a CO2 incubator. The cells were allowed to grow to about 70% confluence before use in the assay.
The culture media of each well was removed by aspiration, and the wells were washed once with serum free media (SFM) (DMEM/F12) media. Then 2 mL of fresh SFM+IBMX media (SFM with 0.5 mM IBMX (3-isobutyl-1-methylxanthine0.1% ascorbic acid and 10 μM pargyline) was added to each well and then incubated at 37° C. for 10 minutes in CO2 incubator. Following incubation, SFM+IBMX media was aspirated and fresh SFM+IBMX media was added to wells separately with one of a) forskolin (10 μM final conc.); b) dopamine and forskolin (both 10 μM final conc.); and c) test compound ([…]), and dopamine and forskolin (both 10 μM final conc.). Basal adenyl cyclase activity was determined from wells with only SFM+IBMX media added.
The cells were then incubated at 37° C. for 30 minutes in a CO2 incubator. Following incubation the media was aspirated from each well and then washed once with 2 mL of PBS (phosphate buffered saline). Each well was then treated with 1 mL cold 95% ethanol:5 mM EDTA (2:1) at 4° C. for 1 h. The cells from each well were then scraped and transferred into individual Eppendorf tubes. The tubes were centrifuged for 5 minutes at 4° C., and the supernatants were transferred to new Eppendorf tubes. The pellets were discarded and the supernatants dried using a SpeedVac. The extracts were then reconstituted in 600 μL of 0.1M sodium acetate buffer, pH 6.1, and stored at 4° C. until assayed for cAMP concentration. cAMP content measured in fmoles/well for each extract was determined by EIA (enzyme-immunoassay) using Amersham Biotrak cAMP EIA kit (Amersham RPN 225).
Total inhibition (IO) of forskolin-stimulated adenyl cyclase activity by dopamine was determined as the difference in concentration of cAMP in the forskolin-treated cells (Cf) and dopamine-forskolin treated cells (Cd).
Net inhibition (I) of forskolin-stimulated adenyl cyclase activity by dopamine in the presence of an antagonist was determined as the difference in concentration of cAMP in the forskolin-treated cells (Cf) and test compound, dopamine and forskolin treated cells (C).
The ability of a test compound to reverse the dopamine inhibition (% reversal, %R) was determined by the formula: […]

inhibition at 1 µM [%]	Structure (SMILES)
47	Clc1ccc2c(c1)C=C(N1CCN(Cc3ccc4c(c3)OCO4)CC1)c1ccccc1S2 [2-chloro-10-(4-piperonyl-1-piperazinyl)dibenzo[b,f]thiepine]
19	Clc1ccc2c(c1)Nc1ccccc1N=C2N1CCN(Cc2ccc3c(c2)OCO3)CC1 [3-chloro-11-(4-piperonyl-1-piperazinyl)-5H-dibenzo[b,e][1,4]diazepine]
46	Clc1ccc2c(c1)N=C(N1CCN(Cc3ccc4c(c3)OCO4)CC1)c1ccccc1O2 [8-chloro-11-(4-piperonyl)-1-piperazinyl)dibenz[b,f][1,4]oxazepine]
40	c1ccc2c(c1)N=C(N1CCN(Cc3ccc4c(c3)OCO4)CC1)c1ccccc1O2 [11-(4-piperonyl)-1-piperazinyl)-dibenz[b,f][1,4]oxazepine]

Same assay, conditions: 10 μM; dopamine and forskolin both 10 μM; read-out: % REVERSAL OF DOPAMINE EFFECT

inhibition at 10 µM [%]	Structure (SMILES)
40	Clc1ccc2c(c1)C=C(N1CCN(Cc3ccc4c(c3)OCO4)CC1)c1ccccc1S2 [2-chloro-10-(4-piperonyl-1-piperazinyl)dibenzo[b,f]thiepine]
50	Clc1ccc2c(c1)Nc1ccccc1N=C2N1CCN(Cc2ccc3c(c2)OCO3)CC1 [3-chloro-11-(4-piperonyl-1-piperazinyl)-5H-dibenzo[b,e][1,4]diazepine]
68	Clc1ccc2c(c1)N=C(N1CCN(Cc3ccc4c(c3)OCO4)CC1)c1ccccc1O2 [8-chloro-11-(4-piperonyl)-1-piperazinyl)dibenz[b,f][1,4]oxazepine]
50	c1ccc2c(c1)N=C(N1CCN(Cc3ccc4c(c3)OCO4)CC1)c1ccccc1O2 [11-(4-piperonyl)-1-piperazinyl)-dibenz[b,f][1,4]oxazepine]
